In patent US10697020B2, “MicroRNA-129 as a biomarker for colorectal cancer” (THE RESEARCH FOUNDATION FOR THE STATE UNIVERSITY OF NEW YORK, priority 2013, dated 2020):

How the values were obtained:
BCL2 = test: Western immunoblot analysis of BCL2 protein after miRNA/siRNA transfection; format: cell-based, human; settings: HCT116, RKO and SW480 cells; 100 nM transfected; 48 h; vs negative control miRNA
Description: (§1) HCT116, RKO and SW480 cells were plated in 6-well plates at 2×10^5, 1×10^5 and 1×10^5 per well, respectively. Twenty-four hours after plating, 100 nM of miR-129 precursor (Ambion, Carlsbad, Calif., USA) or siRNA against BCL2 (Dharmacon, Lafayette, Colo., USA) were transfected to the cells with oligofectamine (Invitrogen, Carlsbad, Calif., USA) in accordance with the manufacturer's protocol. Negative miRNA (Ambion) was also transfected as a negative control.
Forty-eight hours after transfection, cells were lysed with RIPA buffer (Sigma-Aldrich), and Western immunoblotting was performed using standard procedures. The primary antibodies used for the analysis were mouse anti-human BCL2 antibody (1:200; Thermo Fisher Scientific, Fremont, Calif., USA), rabbit anti-human cleaved caspase-3 antibody (1:200; Cell Signaling Technology, Beverly, Mass., USA), rabbit anti-human cleaved caspase-9 antibody (1:200; Cell Signaling Technology), mouse anti-human E2F3 antibody (1:5000; Millipore, Billerica, Mass., USA), mouse anti-human TS antibody (1:400; Millipore), mouse anti-human GAPDH antibody (1:1000, Santa Cruz Biotechnology, Santa Cruz, Calif., USA) or mouse anti-human α-tubulin antibody (1:1000; Millipore). […] HRP activity was detected with SuperSignal West Pico Chemiluminescent Substrate (Thermo Fisher Scientific) and visualized in an UVP Bioimaging system.

[1] = tested on: Colon cancer stem cells, i.e., CD133^+HICD44^+HI cells; test: Colon cancer stem cell tumor xenograft in NOD/SCID mice; format: in vivo
Description: FIG. 3. miR-129 suppresses colorectal cancer cell growth and induces cell cycle arrest. (a) HCT116, […] and SW480 cells were transfected with either miR-129 or negative miRNA, and cell numbers were measured with WST-1 assay at days 1, 3 and 5. Cell cycle analysis was performed to determine the impact of miR-129. The representative flow cytometry pattern was shown in (b) and the G1/S and G2/S ratios were shown in (c) (n=3). (d) Colon cancer stem cells, i.e., CD133^+HICD44^+HI cells were subcutaneously injected into NOD/SCID mice (1×10^4 cells). Mice were treated with either (top left) control lentiviral GFP vector and lentiviral miR-129 expressing construct (n=5) or (top right) mice were injected with negative miRNA (n=5) or miR-129 precursor (n=5) at 1.25 nmol per injection. Tumor sizes were then analyzed 7 weeks after initial treatment (lentiviral or injection). […] Scale bar: 1 cm. (bottom left) Quantitative analysis of colon cancer stem cells in tumor xenografts transfected with lentiviral miR-129 or control constructs reveal a significant reduction in tumor size. (bottom right) Quantitative analysis of colon cancer stem cells in tumor xenografts transfected with control and miR-129 precursor RNA.

[2] = tested on: HCT116, RKO and SW480 cells; test: Apoptosis assay (annexin V / propidium iodide, flow cytometry); format: cell-based, human; settings: all colorectal cancer cell lines tested (HCT116, RKO, SW480); 48 h after transfection; vs negative miRNA
Description: as §1
Forty-eight hours after transfection, cells were harvested, stained with propidium iodide and anti annexin-V antibody (Annexin V-FITC Apoptosis Detection kit, BD Biosciences, San Jose, Calif., USA) following the manufacturer's protocol, and stained cells were detected by flow cytometry. The experiments for the apoptosis assay were performed at least three times.

[3] = tested on: 84 genes involved in cell death pathways; test: Cell Death PathwayFinder PCR Array (real time qRT-PCR); format: cell-based, human; settings: miR-129 transfected vs negative miRNA transfected cells
From the text: RNAs were extracted from cells transfected with either precursor miR-129 or negative miRNA using TRIzol reagent (Invitrogen) in accordance with the manufacturer's protocol. RNAs were transcribed to first-strand cDNA using the RT^2 First Strand Kit (SABiosciences, Qiagen, Venlo, Netherlands). Next, the cDNA is mixed with RT^2 SYBR Green Mastermix (SABiosciences), and this mixture is aliquoted into the wells of the Cell Death PathwayFinder PCR Array (PAHS-212Z). Applied Biosytems 7500 Real-Time PCR machine was used for qRT-PCR, and relative expression values were determined using the ΔΔCT method.

HCT116 cells = test: Cell cycle analysis (flow cytometry), HCT116; format: cell-based, human; settings: 36 h after transfection
Description: as §1
Thirty-six hours after transfection, cells were harvested and resuspended at 0.5 to 1×10^6 cells/m in modified Krishan buffer supplemented with 0.02 mg/ml RNase H (Invitrogen) and 0.05 mg/ml propidium iodide (Sigma-Aldrich, St. Louis, Mo., USA) (See, Krishan A. The Journal of Cell Biology. 1975; 66(1):188-93). Stained cells were detected by flow cytometry and results were analyzed with Modfit LT™ software. The experiments for cell cycle analysis were performed at least three times.

RKO cells = test: Cell proliferation assay (WST-1), RKO; format: cell-based, human; settings: day 5
Description: as §1
Twenty-four hours after transfection, cells were seeded in 96-well plates at a density of 2000 cells per well. The cell proliferation assay was performed on days 1, 3 and 5 by incubating 10 μl WST-1 (Roche Applied Science, Mannheim, Germany) in the culture medium for 1 h and reading the absorbance at 450 and 630 nm. The cell proliferation rate was calculated by […]. Experiments for the cell proliferation assay were performed at least three times.

miR-129: nucleic acid having a sequence of CUUUUUGCGGUCUGGGCUUGC (SEQ ID NO. 1); miR-129 precursor from Ambion used (chemistry not given here; listed as Homo sapiens)
BCL2 protein expression (BCL2): reduced the BCL2 protein expression
tumor size ([1]; delivery via lentiviral miR-129 expressing construct vs control lentiviral GFP vector, 7 weeks): reduces tumor size significantly
tumor size ([1]; injection of miR-129 precursor at 1.25 nmol per injection vs negative miRNA, 7 weeks after initial treatment): reduces tumor size significantly
apoptosis (proportion of cells annexin V positive and propidium iodide negative) [2]: increased apoptosis significantly
Fold change (miR-129/neg) ([3]; gene APAF1): 2.44
Fold change (miR-129/neg) ([3]; gene BAX): 27.77
Fold change (miR-129/neg) ([3]; gene BCL2A1): 0.04
Fold change (miR-129/neg) ([3]; gene BIRC3): 0.28
Fold change (miR-129/neg) ([3]; gene CASP2): 7.68
Fold change (miR-129/neg) ([3]; gene CASP3): 1.27
Fold change (miR-129/neg) ([3]; gene CASP7): 4.75
Fold change (miR-129/neg) ([3]; gene CASP9): 2.53
Fold change (miR-129/neg) ([3]; gene MCL1): 3.81
Fold change (miR-129/neg) ([3]; gene PARP2): 0.47
cell cycle arrest (G1/S and G2/S ratios) (HCT116 cells): reached significance at G2 checkpoint
cell proliferation reduced compared to negative controls (RKO cells): 43.9%
